# Measurements published in patent US10124012B2, “Method for treatment of hyperglycemia and hyperlipidemia” (priority 2016, dated 2018).
# How the values were obtained:
# Assay type in all cases: cell-based
# Conditions in all cases: AnK 1, 5, 10 and 25 μg/mL 30 min, insulin 100 nM 25 min, vs CON group
# [1] = tested on: phospho-AMPK (Thr^172)/total-AMPK; test: AMPK phosphorylation in C2C12 cells (Western blotting)
# Experimental: (§1) For the in vitro assay, C2C12 skeletal myoblasts (ATCC CRL-1772) were cultured at 37° C. in Dulbecco's modified Eagle's medium (DMEM; Gibco BRL) supplemented with 10% fetal bovine serum (FBS; Hyclone) and 100 U/ml penicillin and 100 μg/ml streptomycin (Gibco BRL), and split 1:4 using 0.05% trypsin at 80% confluency. Myoblasts were diluted and placed in a 9 cm dish. Cells were cultured to achieve 80-90% confluency and refreshed with […] (2% FBS/DMEM) every 24 hours for 5-7 days. The term “confluency” refers to the proportion of the surface of a culture dish that is covered by adherent cells growing in the dish. 100% confluency refers to complete coverage of the surface by the cells.
# (§2) Differentiated C2C12 cells were serum-starved in DMEM/BSA at 37° C. for 2 hours prior to incubation with AnK (at 1, 5, 10, and 25 μg/mL) or vehicle (0.2% dimethyl sulfoxide (DMSO) in saline) for 30 min or with 100 nM insulin for 25 min.
# (§3) The abovementioned C2C12 cells were then washed three times with phosphate buffered saline (PBS) and divided into two groups. […]
# (§4) Protein concentrations were determined via BCA assay (Pierce). […]
# (§5) SDS polyacrylamide gel electrophoresis (SDS-PAGE) and Western blotting. Proteins were detected with antibodies specific for GLUT4, Akt, phospho-Akt (Ser^473), AMPK, and phospho-AMPK (Thr^172).
# membrane GLUT4 = test: Membrane GLUT4 expression in C2C12 cells (Western blotting)
# Experimental: as §1, §2
# The C2C12 cells of the other group were homogenized in a homogenization buffer having a pH value of about 7.4 and containing 250 mM sucrose, 50 mM Tris, and 0.2 mM edetic acid (EDTA). […]
# as §4, §5
# [2] = tested on: phospho-Akt (Ser^473)/total-Akt; test: Akt phosphorylation in C2C12 cells (Western blotting)
# Experimental: as §1, §2, §3, §4, §5
structure (smiles),measurement,setting,value
"C=C(CC[C@@H](C)[C@H]1CC[C@H]2C3=C(C(=O)C[C@]12C)[C@@]1(C)CC[C@@H](O)[C@](C)(O)[C@@H]1C[C@@H]3O)C(C)C(=O)O (stereo partly drawn) [AnK, 3α,4β,7β-trihydroxy-4α-methylergosta-8,24(28)-dien-11-on-25S-26-oic acid]",expression ratio of phospho-AMPK (p-AMPK) to total-AMPK (t-AMPK),[1],higher
same,protein expression of membrane GLUT4,membrane GLUT4,enhanced
same,expression ratio of phospho-Akt (p-Akt) to total-Akt (t-Akt),[2],higher
